{"source": "paper PMC11488110", "about": "(Theranostics, 2024)", "key": {"[1]": {"system": "APP/PS1 mice", "test": "APP/PS1 transgenic mouse model of AD", "assay_type": "in vivo", "settings": "30 mg/kg/day p.o. 10 days", "description": "All mice and rats were housed in a temperature- and humidity-controlled environment with a 12 h light/dark cycle and ad libitum access to food and water. All procedures were performed in accordance with the National Institutes of Health Guide for the Care and Use of Laboratory Animals and approved by the Institutional Animal Care and Use Committee of Korea Institute of Science and Technology (KIST-IACUC-2022-020-1). For the pharmacokinetics study, Sprague-Dawley rats were purchased from Koatech (South Korea) and maintained in a specific pathogen-free facility (Laboratory Animal Center, Daegu-Gyeongbuk Medical Innovation Foundation). For the LPS-induced neuroinflammation model or scopolamine-induced AD model, male C57BL/6N mice were obtained from DBL (South Korea). APP/PS1 (APPswe/PSEN1dE9) transgenic mice from the Jackson Laboratory (USA; stock number 004462) were maintained as hemizygotes on the C57BL/6; C3H genetic background at the Research Animal Resources Center of KIST. 10-week-old C57BL/6N and 12-month-old APP/PS1 were used in behavioral experiments with sex- and age-matched controls.\nFor the neuroinflammation model, C57BL/6N mice were intraperitoneally injected daily with 0.3 mg/kg LPS (Sigma-Aldrich, L2880) dissolved in saline (0.9% sodium chloride), for 6 consecutive days. In a non-genetic AD model, we induced acute memory deficits in C57BL/6N mice by intraperitoneal injection with 1 mg/kg of scopolamine hydrobromide (Sigma-Aldrich, S0929) dissolved in saline, 30 min before the behavioral tests. At the end of the experimental period, mice were deeply anesthetized with 2% avertin (500 mg/kg, i.p.) and transcardially perfused with saline. Brains were collected from each mouse, and the hippocampus and cortex were isolated and stored at -80 °C for biochemical analysis. Brain hemispheres were postfixed in 4% paraformaldehyde overnight at 4 °C, then placed in 30% sucrose solution for 48 h at 4 °C for cryoprotection and used for histological analysis.\nThe Y-maze test was used to evaluate the spatial learning and memory performance of mice. The Y-maze apparatus consisted of three identical arms disposed at a 120° angle from each other (41 cm long and 7 cm wide with 15 cm high walls). Mice were placed at the end of one arm and allowed to move freely in the maze for 10 min. The arm entries were manually recorded. Spontaneous alternation was defined as consecutive entries into three different arms and the percentage of alternation was calculated based on the following equation: alternation (%) = number of alternations/(total arm entries - 2) × 100.\nFixed mouse brains were embedded in an optimal cutting temperature compound (Leica, 3801480) and serially sectioned at 30 μm in a cryostat (Thermo Fisher Scientific, HM525 NX). Coronal hippocampal sections were stored in a storage solution (30% glycerol, 30% ethylene glycol, and 30% 0.2 M sodium phosphate buffer, pH 7.2) at 4 °C until use. After washing three times with PBS, the sections were blocked for 1 h with blocking buffer (0.3% Triton X-100 and 4% normal donkey serum in 0.1 M PBS) at room temperature, followed by incubation with primary antibodies in blocking buffer overnight at 4 °C. After washing with PBS, the sections were incubated with corresponding fluorescent secondary antibodies (Jackson ImmunoResearch, Alexa Fluor) for 1 h at room temperature and washed three times with PBS. Nuclei were counterstained with 4′,6-diamidino-2-phenylindole (DAPI; Invitrogen) during the second washing step. Sections were mounted with fluorescent mounting medium (Dako). Fluorescent images were acquired with the ImageXpress Pico (Molecular Devices; 20× magnification) or LSM 800 confocal microscope (Carl Zeiss; 40× magnification). Primary antibodies used are described in Table S6.\nZ-stack projected images (20 μm thickness with a step size of 2 μm or 4 μm) were analyzed using the ImageJ software (NIH). To quantify glial reactivity, the mean fluorescence intensity of GFAP or IBA1 was measured. […]"}, "[2]": {"system": "BV-2 microglial cells", "test": "HO-1 expression and intracellular ROS in BV-2 microglia", "assay_type": "cell-based, mouse", "description": "Total proteins were extracted from cells or mouse brain tissues using radioimmunoprecipitation assay (RIPA) buffer (Sigma-Aldrich) containing a protease and phosphatase inhibitor cocktail (Roche Diagnostics). After 30 min of incubation with RIPA buffer on ice, lysates were centrifuged at 15800 g and 4 °C for 20 min and supernatants were collected. Protein concentrations were determined using Pierce® BCA Protein Assay Kit (Thermo Fisher Scientific). Protein samples (10 μg) were separated on 10% SDS-PAGE gels and transferred to polyvinylidene fluoride (PVDF) membranes (Millipore). The membranes were blocked in 5% skim milk (Millipore) in TBST (10 mM Tris-HCl, pH 7.5, 150 mM NaCl, and 0.1% Tween® 20) for 1 h at room temperature and incubated overnight at 4 °C with primary antibodies. […] The western blot bands were analyzed using ImageJ software (NIH) and β-Actin or glyceraldehyde 3-phosphate dehydrogenase (GAPDH) were used as a loading control. […]\nIntracellular ROS accumulation was monitored using the cell-permeable fluorescent probe DCFH-DA (Sigma-Aldrich). […] After washing with phosphate-buffered saline (PBS), cells were imaged with an ImageXpress Pico (Molecular Devices) and fluorescence intensity was quantified using the ImageJ software (NIH)."}, "[3]": {"system": "BV-2 microglial cells", "test": "Cytotoxicity assay (EZ-Cytox) in BV-2 microglia", "assay_type": "cell-based, mouse", "settings": "up to 20 μM, 24 h", "description": "The in vitro cytotoxicity of 5a was evaluated using the EZ-Cytox assay kit (DoGenBio, South Korea). […] Absorbance was measured at 450 nm, after 1 h of incubation with EZ-Cytox containing water-soluble tetrazolium salt (WST), using a SpectraMax®i3 microplate reader (Molecular Devices)."}}, "note": "“Also recorded” adds a separate entry of the source.", "data": [{"smiles": "Cc1cc(SCc2[se]c(-c3ccc(C(F)(F)F)cc3)nc2C)ccc1OCC(=O)O", "note": "[Compound 5a, {2-Methyl-4-[4-methyl-2-(4-trifluoromethyl-phenyl)-selenazol-5-yl-methylsulfanyl]-phenoxy}-acetic acid]", "values": [{"measurement": "Astrocytic hypertrophy (Sholl analysis)", "setting": "[1]", "result": "significantly suppressed"}, {"measurement": "BACE1 levels in cortical homogenates", "setting": "[1]", "result": "significantly diminished"}, {"measurement": "GFAP and IBA1 immunoreactivity, dentate gyrus", "setting": "[1]", "result": "significantly inhibited"}, {"measurement": "Gfap mRNA in hippocampus homogenates", "setting": "[1]", "result": "reduced levels"}, {"measurement": "Number and area of thioflavin-S Aβ plaques, cortex and hippocampus", "setting": "[1]", "result": "significant reduction in the number and area of Aβ plaques"}, {"measurement": "Number of microglia per plaque", "setting": "[1]", "result": "significant increase"}, {"measurement": "Overall tau hyperphosphorylation in the brain", "setting": "[1]", "result": "inhibiting overall tau hyperphosphorylation"}, {"measurement": "Phagolysosome area within plaque-associated microglia and internalized Aβ area", "setting": "[1]", "result": "increased the phagolysosome area"}, {"measurement": "Plaque-associated BACE1 accumulation, hippocampus", "setting": "[1]", "result": "significantly reduced"}, {"measurement": "Y-maze spontaneous alternation", "setting": "[1]", "result": "prevented the decrease in alternation percentage"}, {"measurement": "Y-maze total number of arm entries", "setting": "[1]", "result": "without inducing any changes"}, {"measurement": "AT8-positive phosphorylated tau around Aβ plaques", "setting": "[1]; not significant", "result": "tend to decrease"}, {"measurement": "Intracellular ROS production (DCFH-DA)", "setting": "[2]; BV-2, 5 μM 24 h, H2O2 200 μM 20 min", "result": "suppressed ROS production"}, {"measurement": "HO-1 expression", "setting": "[2]; BV-2, 48 h", "result": "increased the expression of HO-1"}, {"measurement": "Viability of BV-2 cells", "setting": "[3]", "result": "did not affect the viability; also recorded: less cytotoxic than GW501516"}]}]}
